# Calls of active or inactive are those of the source.
# Key:
# [1] = target: Heat shock protein HSP 90-alpha (Homo sapiens, UniProt P07900); type: functional, organism-based
# [2] = target: T1, Polyadenylate-binding protein 1 (Homo sapiens, UniProt P11940); test: MLLE binding blockers, Cy5 peptide tracer – biochemical, fluorescence polarization, Cy5-PAM2 peptide, secondary, miRNA deadenylation inhibitor project, dose response (AID 602260); type: functional; conditions: read-out: IC50_Mean
# [3] = target: T1, Polyadenylate-binding protein 1; test: MLLE domain peptide-binding blockers, IC50 – biochemical, fluorescence polarization, FITC-PAM2 peptide, dose response (AID 602259); type: functional; conditions: read-out: IC50_Mean
# Genome polyprotein = Genome polyprotein (dengue virus type 2, UniProt P29990); test: flavivirus cap methylation enzyme inhibition – biochemical, confirmation dose response, primary screen (AID 588689); type: functional
# Large T antigen = Large T antigen (Simian virus 40, UniProt P03070); type: functional, Betapolyomavirus macacae;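 note: Confirmatory-stage PubChem screen for compounds that inhibit SV40 T antigen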
# [4] = target: T2, RNA-binding protein pos-1 (Caenorhabditis elegans, UniProt G5EF15); test: disruptors of C. elegans POS-1 RNA interaction – biochemical, fluorescence polarization, dose response (AID 1964);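 note: purified POS-1 fused to maltose binding protein made in E. coli; potency of compounds blocking POS-1 binding to fluorescent RNA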
# T2 sequence (G5EF15 whole entry): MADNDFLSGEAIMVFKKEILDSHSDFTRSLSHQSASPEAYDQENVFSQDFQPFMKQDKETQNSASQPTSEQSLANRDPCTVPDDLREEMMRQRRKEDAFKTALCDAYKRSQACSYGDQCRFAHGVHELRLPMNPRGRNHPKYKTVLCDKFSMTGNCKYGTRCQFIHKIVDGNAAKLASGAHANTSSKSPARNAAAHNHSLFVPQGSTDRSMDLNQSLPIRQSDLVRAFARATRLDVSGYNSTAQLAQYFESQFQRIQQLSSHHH
# [5] = target: T3, Zinc finger protein mex-5 (Caenorhabditis elegans, UniProt Q9XUB2); test: potency of MEX-5 RNA-binding blockers – biochemical, C. elegans, fluorescence polarization, dose response (AID 1960)
# T3 sequence (Q9XUB2 whole entry): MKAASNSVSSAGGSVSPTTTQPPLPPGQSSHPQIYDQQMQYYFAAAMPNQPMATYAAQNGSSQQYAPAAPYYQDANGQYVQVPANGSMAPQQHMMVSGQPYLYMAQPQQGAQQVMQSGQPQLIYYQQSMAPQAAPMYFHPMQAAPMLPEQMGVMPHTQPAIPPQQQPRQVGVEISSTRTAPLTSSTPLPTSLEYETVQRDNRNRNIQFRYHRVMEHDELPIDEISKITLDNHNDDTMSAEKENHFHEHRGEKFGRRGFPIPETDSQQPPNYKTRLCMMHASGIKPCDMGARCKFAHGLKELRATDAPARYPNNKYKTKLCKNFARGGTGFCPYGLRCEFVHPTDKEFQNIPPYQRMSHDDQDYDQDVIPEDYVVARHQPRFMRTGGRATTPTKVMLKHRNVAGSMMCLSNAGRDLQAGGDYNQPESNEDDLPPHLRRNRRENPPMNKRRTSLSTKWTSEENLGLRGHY
# [6] = target: Alkaline phosphatase, placental type (Homo sapiens, UniProt P05187); test: human placental alkaline phosphatase inhibition – biochemical, luminescence, confirmation (AID 1512); type: functional
# Fatty acid synthase [7] = target: T4, Fatty acid synthase (Homo sapiens, UniProt P49327); test: inhibition of human FAS-TE enzyme activity – biochemical, endpoint fluorescence intensity, uHTS hits, dose response (AID 624327); type: functional;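 note: fluorescence from hydrolysis of an O-methyl fluorescein acyl ester substrate by the enzyme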
# Fatty acid synthase [8] = target: T4, Fatty acid synthase; test: inhibition of human FAS-TE enzyme activity – biochemical, kinetic fluorescence intensity, dose response (AID 624326); type: functional;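 note: rate of fluorescence rise from hydrolysis of a fluorogenic O-methyl fluorescein ester substrate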
# [9] = target: Luciferin 4-monooxygenase (Photinus pyralis, UniProt P08659); test: inhibition of purified Photinus pyralis luciferase – biochemical, luminescence, dose response (AID 1891)
# [10] = Luminescence Cell-Based Dose Confirmation HTS to Identify Inhibitors of Platelet Dense Granule Release. [Related pubchem assays: 1663 (Primary HTS), 1678 (Summary of Project)]; type: functional
# [11] = target: T5, Replicative DNA helicase DnaB (Mycobacterium tuberculosis, UniProt P9WMR3); test: DnaB intein splicing inhibitors, dose response, biochemical, cell-free fluorescence (AID 449749); type: functional
# T5 sequence (P9WMR3 whole entry): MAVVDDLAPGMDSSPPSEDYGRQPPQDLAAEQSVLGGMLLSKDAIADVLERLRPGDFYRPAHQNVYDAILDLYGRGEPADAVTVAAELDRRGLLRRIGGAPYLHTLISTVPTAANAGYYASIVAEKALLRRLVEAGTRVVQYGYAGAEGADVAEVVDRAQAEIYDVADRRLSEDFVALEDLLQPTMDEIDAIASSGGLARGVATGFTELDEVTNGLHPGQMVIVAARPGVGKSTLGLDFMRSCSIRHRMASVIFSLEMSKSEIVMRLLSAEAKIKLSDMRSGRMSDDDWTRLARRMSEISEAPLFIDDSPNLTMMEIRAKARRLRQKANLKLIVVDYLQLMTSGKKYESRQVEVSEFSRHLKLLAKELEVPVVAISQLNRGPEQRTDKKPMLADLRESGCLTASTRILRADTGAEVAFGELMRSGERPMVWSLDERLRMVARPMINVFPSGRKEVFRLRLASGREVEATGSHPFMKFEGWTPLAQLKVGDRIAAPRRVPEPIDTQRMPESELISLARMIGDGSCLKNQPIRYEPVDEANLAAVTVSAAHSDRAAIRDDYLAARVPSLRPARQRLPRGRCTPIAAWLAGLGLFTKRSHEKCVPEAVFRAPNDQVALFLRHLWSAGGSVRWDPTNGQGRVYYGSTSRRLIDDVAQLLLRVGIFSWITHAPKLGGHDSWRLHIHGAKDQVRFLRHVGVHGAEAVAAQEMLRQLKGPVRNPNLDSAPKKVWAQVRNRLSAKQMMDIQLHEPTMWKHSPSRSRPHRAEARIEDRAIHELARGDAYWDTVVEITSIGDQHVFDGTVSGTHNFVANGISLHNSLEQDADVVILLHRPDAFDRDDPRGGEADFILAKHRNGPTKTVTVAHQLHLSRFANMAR
# Protein RecA = target: T6, Protein RecA (Mycobacterium tuberculosis, UniProt P9WHJ3); test: Fluorescence Cell-Free Homogeneous Dose Retest to Identify Inhibitors of RecA-Intein Splicing Activity. [Related pubchem assays (depositor defined):AID2097, AID2223, AID489010, AID492950]; type: functional
# T6 sequence (P9WHJ3 whole entry): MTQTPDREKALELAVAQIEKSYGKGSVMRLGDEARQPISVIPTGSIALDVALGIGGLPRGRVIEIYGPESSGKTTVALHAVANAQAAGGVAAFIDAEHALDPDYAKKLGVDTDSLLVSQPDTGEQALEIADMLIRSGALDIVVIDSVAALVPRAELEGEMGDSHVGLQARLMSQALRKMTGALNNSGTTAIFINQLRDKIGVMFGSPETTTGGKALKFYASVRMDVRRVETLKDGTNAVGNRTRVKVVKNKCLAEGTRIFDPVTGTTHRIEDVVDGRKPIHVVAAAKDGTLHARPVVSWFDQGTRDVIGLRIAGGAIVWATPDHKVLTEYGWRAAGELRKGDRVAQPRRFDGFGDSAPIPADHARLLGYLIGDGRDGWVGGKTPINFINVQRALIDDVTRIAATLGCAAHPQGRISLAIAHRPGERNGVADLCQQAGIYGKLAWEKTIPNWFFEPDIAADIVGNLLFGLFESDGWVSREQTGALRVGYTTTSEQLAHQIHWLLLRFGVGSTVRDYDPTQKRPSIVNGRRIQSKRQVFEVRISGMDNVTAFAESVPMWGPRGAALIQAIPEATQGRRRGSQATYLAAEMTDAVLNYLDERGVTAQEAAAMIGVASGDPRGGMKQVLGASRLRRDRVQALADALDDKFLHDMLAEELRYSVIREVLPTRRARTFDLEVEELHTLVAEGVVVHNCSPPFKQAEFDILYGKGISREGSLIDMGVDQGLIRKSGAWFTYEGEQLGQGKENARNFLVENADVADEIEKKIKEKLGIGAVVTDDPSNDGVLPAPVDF
# [12] = target: T7, High affinity choline transporter 1 (Homo sapiens, UniProt Q9GZV3); test: human choline transporter blockers, potency – cell-based, 5-point CRC, membrane potential dye, dose response (AID 504840); type: functional
# T7 sequence (Q9GZV3 whole entry): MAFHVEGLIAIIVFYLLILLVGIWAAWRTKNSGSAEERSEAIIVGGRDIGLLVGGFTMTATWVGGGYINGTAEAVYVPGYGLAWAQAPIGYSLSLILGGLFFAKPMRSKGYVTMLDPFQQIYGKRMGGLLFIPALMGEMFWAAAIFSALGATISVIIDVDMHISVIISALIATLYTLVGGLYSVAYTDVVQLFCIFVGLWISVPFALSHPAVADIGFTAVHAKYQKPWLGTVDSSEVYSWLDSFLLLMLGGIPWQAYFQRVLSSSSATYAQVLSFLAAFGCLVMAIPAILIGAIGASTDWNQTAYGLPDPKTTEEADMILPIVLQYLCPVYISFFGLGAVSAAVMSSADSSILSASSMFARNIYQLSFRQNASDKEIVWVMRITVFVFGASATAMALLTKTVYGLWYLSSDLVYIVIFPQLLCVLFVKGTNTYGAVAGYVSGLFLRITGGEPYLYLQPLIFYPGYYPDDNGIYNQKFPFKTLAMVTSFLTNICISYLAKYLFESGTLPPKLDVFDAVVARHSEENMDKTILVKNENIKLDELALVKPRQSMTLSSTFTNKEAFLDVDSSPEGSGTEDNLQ
# [13] = Luminescence Cell-Based Dose Retest to Confirm Inhibitors of Cancer Stem Cells. [Related pubchem assays (depositor defined):AID2717, AID2721]; type: functional; conditions: Homo sapiens
# [14] = blockers of HIV-1 envelope-mediated cell-cell fusion – cherry-pick, dose response (AID 652057); type: functional, cell-based
# [15] = blockers of HIV-1 ZM109 envelope-driven cell-cell fusion – HeLa effector, CEM target cells, luciferase, cherry-pick, dose response (AID 652058); type: functional, cell-based;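 note: luciferase signal from HIV-1 Env mediated cell-cell fusion of effector and target cells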
# [16] = HIV-1 AD8 envelope cell-cell fusion blockers – cherry-pick, dose response (AID 652062); type: functional, cell-based;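 note: luciferase signal from cell-cell fusion driven by HIV-1 clade B AD8 Env; potency is for inhibitors of fusion seen as a drop in luminescence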
# T1 sequence (P11940 whole entry, the tested form may be a part): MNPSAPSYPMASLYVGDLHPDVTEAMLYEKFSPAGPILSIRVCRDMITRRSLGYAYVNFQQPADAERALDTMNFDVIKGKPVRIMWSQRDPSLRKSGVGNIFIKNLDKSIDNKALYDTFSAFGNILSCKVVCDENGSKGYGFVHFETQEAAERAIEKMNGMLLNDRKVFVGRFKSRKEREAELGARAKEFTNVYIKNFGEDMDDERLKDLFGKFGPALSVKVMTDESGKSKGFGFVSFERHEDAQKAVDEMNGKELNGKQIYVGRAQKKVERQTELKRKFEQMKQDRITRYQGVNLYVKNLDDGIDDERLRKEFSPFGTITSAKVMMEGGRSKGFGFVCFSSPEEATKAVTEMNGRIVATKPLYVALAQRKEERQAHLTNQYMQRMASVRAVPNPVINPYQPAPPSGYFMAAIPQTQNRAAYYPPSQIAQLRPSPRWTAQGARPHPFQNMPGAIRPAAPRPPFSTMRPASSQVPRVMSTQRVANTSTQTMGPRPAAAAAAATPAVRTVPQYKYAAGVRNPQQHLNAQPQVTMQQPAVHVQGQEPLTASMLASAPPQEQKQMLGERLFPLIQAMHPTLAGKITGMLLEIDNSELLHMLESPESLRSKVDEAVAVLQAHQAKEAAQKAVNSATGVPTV
# Genome polyprotein, sequence (P29990 2492-3391 limits assumed): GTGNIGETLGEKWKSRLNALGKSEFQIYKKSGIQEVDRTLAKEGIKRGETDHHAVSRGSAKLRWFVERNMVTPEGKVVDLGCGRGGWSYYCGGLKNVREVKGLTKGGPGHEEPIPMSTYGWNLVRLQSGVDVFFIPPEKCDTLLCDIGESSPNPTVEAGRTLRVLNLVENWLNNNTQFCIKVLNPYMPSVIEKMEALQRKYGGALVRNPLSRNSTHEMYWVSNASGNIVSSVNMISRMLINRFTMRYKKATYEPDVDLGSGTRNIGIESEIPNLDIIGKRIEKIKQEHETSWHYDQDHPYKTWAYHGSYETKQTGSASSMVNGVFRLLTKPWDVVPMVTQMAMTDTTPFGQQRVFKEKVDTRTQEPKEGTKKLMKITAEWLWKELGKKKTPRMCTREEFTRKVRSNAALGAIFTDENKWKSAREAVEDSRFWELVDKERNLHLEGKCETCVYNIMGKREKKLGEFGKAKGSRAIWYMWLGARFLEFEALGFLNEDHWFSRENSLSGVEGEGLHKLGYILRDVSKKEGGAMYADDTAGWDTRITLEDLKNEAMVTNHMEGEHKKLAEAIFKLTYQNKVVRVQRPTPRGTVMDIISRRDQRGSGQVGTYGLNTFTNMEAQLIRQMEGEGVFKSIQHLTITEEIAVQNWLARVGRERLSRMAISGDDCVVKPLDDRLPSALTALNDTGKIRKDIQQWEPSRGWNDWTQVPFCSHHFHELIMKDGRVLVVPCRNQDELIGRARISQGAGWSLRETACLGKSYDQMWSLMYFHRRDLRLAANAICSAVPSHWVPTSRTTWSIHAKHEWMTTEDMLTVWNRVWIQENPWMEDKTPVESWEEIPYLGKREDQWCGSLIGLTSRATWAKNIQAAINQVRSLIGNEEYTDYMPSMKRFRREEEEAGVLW
# T4 sequence (P49327 whole entry): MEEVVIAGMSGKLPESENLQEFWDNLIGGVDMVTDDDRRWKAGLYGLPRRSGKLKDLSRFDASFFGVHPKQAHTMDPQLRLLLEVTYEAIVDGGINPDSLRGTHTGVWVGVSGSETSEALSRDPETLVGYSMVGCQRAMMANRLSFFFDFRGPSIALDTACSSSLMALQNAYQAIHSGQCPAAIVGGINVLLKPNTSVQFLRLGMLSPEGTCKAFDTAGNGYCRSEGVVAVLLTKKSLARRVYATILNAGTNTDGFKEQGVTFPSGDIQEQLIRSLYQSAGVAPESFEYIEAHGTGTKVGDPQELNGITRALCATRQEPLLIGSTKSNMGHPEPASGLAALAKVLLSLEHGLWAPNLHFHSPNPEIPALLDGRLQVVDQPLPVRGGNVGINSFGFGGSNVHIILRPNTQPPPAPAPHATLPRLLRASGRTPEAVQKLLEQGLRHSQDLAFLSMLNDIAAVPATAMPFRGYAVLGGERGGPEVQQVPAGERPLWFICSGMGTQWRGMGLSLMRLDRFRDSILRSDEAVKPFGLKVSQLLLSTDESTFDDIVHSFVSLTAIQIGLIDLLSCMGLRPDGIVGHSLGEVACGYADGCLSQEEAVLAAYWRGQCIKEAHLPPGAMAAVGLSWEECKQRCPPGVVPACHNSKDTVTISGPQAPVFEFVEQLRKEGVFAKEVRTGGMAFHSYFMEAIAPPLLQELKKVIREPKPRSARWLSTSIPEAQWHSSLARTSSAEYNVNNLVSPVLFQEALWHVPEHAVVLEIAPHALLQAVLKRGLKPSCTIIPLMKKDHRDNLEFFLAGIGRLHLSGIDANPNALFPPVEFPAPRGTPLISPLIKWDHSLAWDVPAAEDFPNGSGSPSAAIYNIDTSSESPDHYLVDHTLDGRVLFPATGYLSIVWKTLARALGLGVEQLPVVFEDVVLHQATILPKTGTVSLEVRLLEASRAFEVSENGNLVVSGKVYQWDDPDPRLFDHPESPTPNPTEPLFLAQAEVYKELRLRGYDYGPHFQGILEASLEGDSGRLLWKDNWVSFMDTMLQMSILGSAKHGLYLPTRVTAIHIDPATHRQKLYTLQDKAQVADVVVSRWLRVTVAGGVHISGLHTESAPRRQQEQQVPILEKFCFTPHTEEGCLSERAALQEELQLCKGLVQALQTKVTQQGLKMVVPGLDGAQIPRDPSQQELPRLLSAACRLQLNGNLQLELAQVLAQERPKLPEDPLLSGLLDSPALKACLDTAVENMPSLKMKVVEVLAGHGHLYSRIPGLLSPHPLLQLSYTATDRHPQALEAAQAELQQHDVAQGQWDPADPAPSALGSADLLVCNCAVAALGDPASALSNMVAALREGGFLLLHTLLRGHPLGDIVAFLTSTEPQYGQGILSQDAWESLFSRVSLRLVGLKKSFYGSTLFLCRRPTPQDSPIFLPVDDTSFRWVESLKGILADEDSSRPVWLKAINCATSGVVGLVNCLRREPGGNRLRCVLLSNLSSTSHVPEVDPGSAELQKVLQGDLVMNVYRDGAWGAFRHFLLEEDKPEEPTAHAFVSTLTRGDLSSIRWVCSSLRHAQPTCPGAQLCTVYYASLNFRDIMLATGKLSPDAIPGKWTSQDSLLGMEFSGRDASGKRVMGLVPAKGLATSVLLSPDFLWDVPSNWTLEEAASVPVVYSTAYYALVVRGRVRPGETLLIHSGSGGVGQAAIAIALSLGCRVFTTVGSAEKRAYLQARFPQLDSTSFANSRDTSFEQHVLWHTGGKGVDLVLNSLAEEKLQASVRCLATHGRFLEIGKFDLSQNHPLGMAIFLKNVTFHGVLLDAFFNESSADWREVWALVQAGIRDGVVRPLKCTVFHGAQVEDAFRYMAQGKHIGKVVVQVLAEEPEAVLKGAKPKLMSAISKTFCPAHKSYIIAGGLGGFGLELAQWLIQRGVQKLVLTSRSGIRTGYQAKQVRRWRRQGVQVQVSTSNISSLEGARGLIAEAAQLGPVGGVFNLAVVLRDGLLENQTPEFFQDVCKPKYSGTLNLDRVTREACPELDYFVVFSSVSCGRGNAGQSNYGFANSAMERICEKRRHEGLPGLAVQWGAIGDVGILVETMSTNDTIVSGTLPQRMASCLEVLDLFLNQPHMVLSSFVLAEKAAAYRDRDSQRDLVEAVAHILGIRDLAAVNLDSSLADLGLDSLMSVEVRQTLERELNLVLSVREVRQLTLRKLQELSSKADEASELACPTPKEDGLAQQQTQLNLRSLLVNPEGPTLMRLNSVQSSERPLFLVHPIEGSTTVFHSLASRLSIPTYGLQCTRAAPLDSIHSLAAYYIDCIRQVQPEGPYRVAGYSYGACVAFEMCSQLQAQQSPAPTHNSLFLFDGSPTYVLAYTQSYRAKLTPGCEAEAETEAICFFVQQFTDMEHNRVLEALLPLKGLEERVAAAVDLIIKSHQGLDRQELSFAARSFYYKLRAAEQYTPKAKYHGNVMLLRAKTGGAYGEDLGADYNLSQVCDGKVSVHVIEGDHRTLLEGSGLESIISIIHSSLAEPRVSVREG
# Large T antigen, sequence (P03070 whole entry, the tested form may be a part): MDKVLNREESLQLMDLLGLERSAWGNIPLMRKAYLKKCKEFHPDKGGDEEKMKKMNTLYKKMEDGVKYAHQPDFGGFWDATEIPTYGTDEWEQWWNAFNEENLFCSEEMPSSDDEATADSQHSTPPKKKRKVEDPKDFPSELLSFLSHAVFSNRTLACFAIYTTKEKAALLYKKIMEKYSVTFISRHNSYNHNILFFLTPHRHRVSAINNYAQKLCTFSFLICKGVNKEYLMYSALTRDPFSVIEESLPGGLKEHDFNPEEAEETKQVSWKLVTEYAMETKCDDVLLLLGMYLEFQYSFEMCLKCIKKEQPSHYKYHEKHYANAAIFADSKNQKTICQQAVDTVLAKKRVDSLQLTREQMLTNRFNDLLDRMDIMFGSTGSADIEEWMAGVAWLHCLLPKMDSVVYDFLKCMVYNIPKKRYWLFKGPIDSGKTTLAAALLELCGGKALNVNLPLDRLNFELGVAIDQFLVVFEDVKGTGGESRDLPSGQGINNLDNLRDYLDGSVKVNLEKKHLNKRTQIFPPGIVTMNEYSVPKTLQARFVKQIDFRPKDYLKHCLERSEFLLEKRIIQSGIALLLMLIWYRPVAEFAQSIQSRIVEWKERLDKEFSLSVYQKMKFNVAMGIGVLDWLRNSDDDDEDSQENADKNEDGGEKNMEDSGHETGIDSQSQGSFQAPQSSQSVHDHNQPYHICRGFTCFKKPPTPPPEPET
compound,measurement,setting,value
O=C(/C=C/c1cccc([N+](=O)[O-])c1)c1ccco1,AC50,[1],4 µM (active)
COC(=O)c1sc(=S)sc1C(=O)OC,IC50,[2],> 66 µM (inactive)
same,IC50,[3],> 66 µM (inactive)
C#CCOc1ccc(/C=C2/C(=O)ON=C2C)cc1OCC,IC50,Genome polyprotein,> 100 µM (active)
CCCSc1nc(O)c(C(c2ccc(OC)c(O)c2)c2c(O)nc(SCCC)n(C)c2=O)c(=O)n1C,IC50,Large T antigen,> 100 µM (active)
same,IC50,Genome polyprotein,42.1 µM (active)
CCN(CC)CCCNC(=O)CCC(=O)NNc1nc2ccccc2c2nc(C)nn12,EC50,[4],160 µM (active)
same,EC50,[5],0.93 µM (active)
same,IC50,[6],> 100 µM (inactive)
COc1ccc([N+](=O)[O-])cc1NC(=O)CC(c1ccccc1)c1ccccc1,IC50,Fatty acid synthase [7],60.1 µM (inactive)
same,IC50,Fatty acid synthase [8],32.8 µM (inactive)
Cc1ccc(OCCOc2cccc(C=C3C(=O)NC(=O)NC3=O)c2)c(C)c1,IC50,Genome polyprotein,35.5 µM (active)
CC1(C)N=C(SCC(=O)Nc2ccccc2)C(c2ccc(Cl)cc2)=N1,IC50,[2],> 66 µM (inactive)
same,IC50,[3],> 66 µM (inactive)
COc1ccc(-c2nnc3n(CCc4ccccc4)c(=O)c4ccccc4n23)c(OC)c1,EC50,[9],> 112 µM (not active)
same,EC50,[10],> 112 µM (not active)
same,AC50,[1],7.83 µM (active)
CCCCCCCCNC(=O)/C(C#N)=C/c1ccccc1[N+](=O)[O-],AC50,[11],1.98 µM (active)
same,AC50,[1],4.28 µM (active)
same,EC50,Protein RecA,3.79 µM (active)
same,IC50,Fatty acid synthase [7],8.41 µM (active)
same,IC50,Fatty acid synthase [8],5.82 µM (active)
CC(C)c1ccccc1NC(=O)COC(=O)c1cc([N+](=O)[O-])ccc1N1CCOCC1,IC50,Fatty acid synthase [7],2.95 µM (active)
same,IC50,Fatty acid synthase [8],2.46 µM (active)
Cc1cccc(-n2cc(CN3CCN(Cc4nccn4C)CC3)c(-c3cccc(F)c3)n2)c1,IC50,[12],13.5 µM (active)
CC(=O)n1c2ccccc2c2c1c1ccccc1n2C,IC50,[2],> 66 µM (inactive)
same,IC50,[3],> 66 µM (inactive)
Cc1ccc(N2C(=O)CC(SCC(=O)Nc3ccc(S(N)(=O)=O)cc3)C2=O)cc1 (centres undefined),IC50,[2],> 66 µM (inactive)
same,IC50,[3],> 66 µM (inactive)
COc1ccc(C(=O)COC(=O)c2cc([N+](=O)[O-])ccc2N2CCOCC2)c(OC)c1,AC50,[1],10.2 µM (active)
same,IC50,Fatty acid synthase [7],1.66 µM (active)
same,IC50,Fatty acid synthase [8],1.63 µM (active)
CCC(C)N/C=C1/C(=O)NC(=O)N(c2ccccc2)C1=O (centres undefined),IC50,[2],> 66 µM (inactive)
same,IC50,[3],> 66 µM (inactive)
O=C(NCCN1CCCC1)c1ccc2c(c1)N(Cc1cccc(Cl)c1)C(=O)c1ccccc1S2(=O)=O,AC50,[13],> 195 µM (inactive)
same,IC50,[12],11.5 µM (active)
COc1ccc2c(c1)OC[C@H]1[C@H]2N2C(=O)c3cc(C)ccc3NC(=O)[C@@]2(C)[C@H]1c1ccccc1,AC50,[1],1.86 µM (active)
Cc1noc(C)c1S(=O)(=O)N(C)C[C@@H]1Oc2ccc(NC(=O)Nc3cccc4ccccc34)cc2CC(=O)N([C@H](C)CO)C[C@@H]1C,AC50,[14],< 0.285 µM (active)
same,AC50,[15],< 0.285 µM (active)
same,AC50,[16],2.17 µM (active)
CCc1cnc(N2[C@@H](C#N)[C@H](c3ccc(C#Cc4ccccc4F)cc3)[C@@H]2CO)s1,AC50,[14],39.8 µM (active)
same,AC50,[15],5.29 µM (active)
same,AC50,[16],24.4 µM (active)
Cc1cc(-c2ccc(/C=N/n3cnnc3)o2)c(C)c([N+](=O)[O-])c1,IC50,Fatty acid synthase [7],12.5 µM (active)
same,IC50,Fatty acid synthase [8],9.46 µM (active)
C/C(=N\NC(=O)c1nnn(-c2nonc2N)c1-c1ccc(Cl)c(Cl)c1)c1ccncc1,IC50,Fatty acid synthase [7],28 µM (inactive)
same,IC50,Fatty acid synthase [8],20.9 µM (inactive)
Cn1nnc2c(C(N)=O)ncn2c1=O [TEMOZOLOMIDE],IC50,[2],> 66 µM (inactive)
same,IC50,[3],43.4 µM (inactive)
